The test system of one experiment is MIA PaCa-2. The experiment in a line: Tumor cell anti-proliferation assay (CTG assay), MIA PaCa-2. The following applies: read-out: IC50 MIA PaCa-2. Format: cell-based. As for the experimental part: (§1) Assay 3: Tumor Cell Anti-Proliferation Assay (CTG Assay)
(§2) Tested tumor cell lines (MIA PaCa-2, NCI-H358, and A549) were seeded to the 96-well plate for overnight, then cells were treated with the test compound at 9 serially diluted concentrations in triplicate. After 3-days incubation with the test compound, the CTG assay was performed to evaluate the IC50. The 3 cell lines were tested in the same manner. Cisplatin were used as the positive control.
(§3) Day −1: Cell Plating for Cell Lines
(§4) 1. Adjust the cell concentration to the appropriated number with the medium, and for each well of a 96-well plate, add 90 μl cell suspensions (Cell concentration will be adjusted according to the data base or density optimization assay). 2. Incubate the plates for overnight in humidified incubator at […] with 5% CO2.
(§5) Day 0: T0 Plate Reading and Compound Treatment
(§6) 3. Add 10 μL culture medium to each well of plate A for T0 reading.
(§7) 4. Equilibrate the plate and its content at RT for approximately 30 min.
(§8) 5. Add 50 μL CellTiter-Glo® Reagent to each well for T0 reading.
(§9) 6. Mix contents for 2 minutes on an orbital shaker to facilitate cell lysis.
(§10) 7. Allow the plate to incubate at room temperature for 10 minutes to stabilize the luminescent signal. Note: Uneven luminescent signal within standard plates can be caused by temperature gradients, uneven seeding of cells or edge effects in multiwall plates.
(§11) 8. Place a black BackSeal sticker to the bottom of each plate.
(§12) 9. Record luminescence using an Envision Multi Label Reader.
(§13) 10. Dilute the test compound and the positive control (Cisplatin). Add 10 μL of 10× test compound working solutions into the corresponding wells. Incubate the test plates in the humidified incubator at 37° C. with 5% Co2.
(§14) Day 3: Plate Reading for 3-Day Assay
(§15) 11. Monitor under the microscope to make sure that the cells in control wells are healthy.
(§16) 12. After three days incubation, add 50 μL CellTiter-Glo® Reagent to each well.
(§17) 13. Mix contents for 2 minutes on an orbital shaker to facilitate cell lysis.
(§18) 14. Allow the plate to incubate at room temperature for 10 minutes to stabilize the luminescent signal.
(§19) 15. Note: Uneven luminescent signal within standard plates can be caused by temperature gradients, uneven seeding of cells or edge effects in multiwall plates.
(§20) 16. Place a black BackSeal sticker to the bottom of each plate.
(§21) 17. Record luminescence using an Envision Multi Label Reader.
(§22) In order to calculate IC50, a dose-response curve was fitted using nonlinear regression model with a sigmoidal dose response. The formula of the surviving rate is shown below, and the IC50 was automatically produced by GraphPad Prism 5.0.
(§23) The surviving rate […]=(LumTest compound−LumMedium control)/(LumNone treated-LumMedium control)×100%.
(§24) LumNone treated-LumMedium control is set as 100% o and LumMedium control is set as […]. T0 value will be presented as percentage of LumNone treated.

For a further experiment, the target named is KRAS G12C (Homo sapiens, UniProt P01116, G12C). Description: KRAS GDP FI assay. The note with it: kinetic reading Ex580/Em620 for 120 min. The experiment is classed as biochemical. From the text:
Assay 2: KRAS GDP FI Assay
1. Prepare compound dilution plate.
2. Transfer Inhibitor/DMSO to assay plate by Echo.
3. Prepare 1× assay buffer.
4. Prepare KRAS G12C mix & SOS1 mix & GTP mix & detection reagent mix.
5. Add KRAS G12C mix, SOS1 mix, GTP mix.
6. Add detection reagent mix to assay plate.

Another experiment concerns NCI-H358. Description: Tumor cell anti-proliferation assay (CTG assay), NCI-H358. The note with it: read-out: IC50 NCI-H358. The experiment is classed as cell-based. As for the experimental part:
as §1, §2, §3, §4, §5, §6, §7, §8, §9, §10, §11, §12, §13, §14, §15, §16, §17, §18, §19, §20, §21, §22, §23, §24

[1] abbreviates: MIA PaCa-2, 3-days incubation, CTG.
[2] abbreviates: NCI-H358, 3-days incubation, CTG.
The mark [3] stands for this setting: Homo sapiens, MIA PaCa-2, 72 h, MIA PaCa-2, 3-days incubation, CTG.

pIC50: −log10 of the molar value. Where two headings read alike, the source gives them in different places.

On to `C=CC(=O)N1CCN(c2nc(OC[C@@H]3CCCN3C)nc3c(=O)n(-c4cccc5cccc(Cl)c45)c(C(F)(F)F)nc23)C[C@@H]1CC#N` (single isomer, unassigned) [Example 32-b], for which the pIC50 (in general, −log10 of the IC50, conventionally taken in molar units) is 6.73 with MIA PaCa-2 (setting [1]) and 7.08 against KRAS G12C. For `C=CC(=O)N1CCN(c2nc(OC[C@@H]3CCCN3C)nc3c(=O)n(-c4cccc5cccc(Cl)c45)c(C(F)(F)F)nc23)[C@@H](C)C1` (single isomer, unassigned) [Compound 24-a], the pIC50 in the experiment with NCI-H358 (setting [2]) was 6.39.

Take `C=CC(=O)N1CCN(c2nc(OC[C@@H]3CCCN3C)nc3c(=O)n(-c4cccc5cccc(Cl)c45)c(C(F)(F)F)nc23)[C@@H](C)C1` [Compound 24, 8-((S)-4-acryloyl-2-methylpiperazin-1-yl)-3-(8-chloronaphthalen-1-yl)-6-(((S)-1-methylpyrrolidin-2-yl)methoxy)-2-(trifluoromethyl)pyrimido[5,4-d] pyrimidin-4(3H)-one]: the results for the pIC50 in the experiment with MIA PaCa-2 (setting [3]) and on KRAS G12C were 6.32 and 6.88, respectively. Compound `C=CC(=O)N1CCN(c2nc(OC[C@@H]3CCCN3C)nc3c(=O)n(-c4ccccc4F)c(C(F)(F)F)nc23)[C@@H](C)C1` (single isomer, unassigned) [Example 40-b] had a pIC50 at KRAS G12C of 6.39. With `C=CC(=O)N1CCN(c2nc(OC[C@@H]3CCCN3C)nc3c(=O)n(-c4cccc5cccc(F)c45)c(C(F)(F)F)nc23)C[C@@H]1CC#N` [Example 37, 2-((S)-1-acryloyl-4-(7-(8-fluoronaphthalen-1-yl)-2-(((S)-1-methylpyrrolidin-2-yl)methoxy)-8-oxo-6-(trifluoromethyl)-7,8-dihydropyrimido[5,4-d]pyrimidin-4-yl)piperazin-2-yl) acetonitrile], the pIC50 at KRAS G12C is 6.75. Regarding “2-((S)-1-acryloyl-4-(7-(8-chloronaphthalen-1-yl)-2-(((2S,4R)-4-fluoro-1-methylpyrrolidin-2-yl) [Compound 25-a]”, the negative-log IC50 (pIC50) with MIA PaCa-2 (setting [1]) is below 8.00. With `C=CC(=O)N1CCN(c2nc(OC[C@@H]3CCCN3C)nc3c(=O)n(-c4cccc5cccc(Cl)c45)c(C(F)(F)F)nc23)[C@@H](C)C1` (single isomer, unassigned) [Compound 24-b], the negative-log IC50 (pIC50) in the experiment with NCI-H358 (setting [2]) is 5.84. As to `C=CC(=O)N1CCN(c2nc(OC[C@@H]3CCCN3C)nc3c(=O)n(-c4c(F)cccc4OC)c(C(F)(F)F)nc23)C[C@@H]1CC#N` [Example 38, 2-((S)-1-acryloyl-4-(7-(2-fluoro-6-methoxyphenyl)-2-(((S)-1-methylpyrrolidin-2-yl)methoxy)-8-oxo-6-(trifluoromethyl)-7,8-dihydropyrimido[5,4-d]pyrimidin-4-yl)piperazin-2-yl)acetonitrile], the negative-log IC50 (pIC50) against KRAS G12C was 6.31.

Consider `C=CC(=O)N1CCN(c2nc(OC[C@@H]3CCCN3C)nc3c(=O)n(-c4cccc5cccc(Cl)c45)c(CC)nc23)[C@@H](C)C1` (single isomer, unassigned) [Compound 27-a], for which, in the experiment on MIA PaCa-2 (setting [3]), the pIC50 is 5.54. Turning to `C=CC(=O)N1CCN(c2nc(OC[C@@H]3CCCN3C)nc3c2CCCC(c2c(C)ccc4[nH]ncc24)C3)C[C@@H]1CC#N` (stereo partly drawn) [Example 30, 2-((2S)-1-acryloyl-4-(8-(5-methyl-1H-indazol-4-yl)-2-(((S)-1-methylpyrrolidin-2-yl)methoxy)-6,7,8,9-tetrahydro-5H-cyclohepta[d]pyrimidin-4-yl)piperazin-2-yl)acetonitrile], the negative-log IC50 (pIC50) is 7.14 with MIA PaCa-2 (setting [3]) and 6.91 at KRAS G12C. On to `C=CC(=O)N1CCN(c2nc(OC[C@@H]3CCCN3C)nc3c(=O)n(-c4cccc5cccc(C)c45)c(-c4ccccc4)nc23)C[C@@H]1CC#N` [Example 39, 2-((S)-1-acryloyl-4-(7-(8-methylnaphthalen-1-yl)-2-(((S)-1-methylpyrrolidin-2-yl)methoxy)-8-oxo-6-phenyl-7,8-dihydropyrimido[5,4-d]pyrimidin-4-yl)piperazin-2-yl)acetonitrile], for which the pIC50 on KRAS G12C was 6.44.

Consider `C=CC(=O)N1C[C@H](C)N(c2nc(OC[C@@H]3CCCN3C)nc3c(=O)n(-c4cccc5cccc(Cl)c45)c(C(F)(F)F)nc23)[C@@H](C)C1` (single isomer, unassigned) [Example 29-a], for which the negative-log IC50 (pIC50) on KRAS G12C is 7.05; with NCI-H358 (setting [2]), 6.83. For the compound `C=CC(=O)N1CCN(c2nc(OC[C@@H]3CCCN3C)nc3c(=O)n(-c4cccc5cccc(Cl)c45)c(C(F)(F)F)nc23)C[C@@H]1CC#N` (single isomer, unassigned) [Example 32-a], the pIC50 with MIA PaCa-2 (setting [3]) was 5.43. `C=CC(=O)N1CCN(c2nc(OC[C@@H]3CCCN3C)nc3c(=O)n(-c4cccc5cccc(Cl)c45)c(C)nc23)[C@@H](C)C1` (single isomer, unassigned) [Compound 26-b]: the figures for the negative logarithm of the IC50 (pIC50) with MIA PaCa-2 (setting [1]) and against KRAS G12C were 5.54 and 5.82, respectively. Regarding `C=CC(=O)N1C[C@H](C)N(c2nc(OC[C@@H]3CCCN3C)nc3c(=O)n(-c4cn(C)c5ccccc45)c(C(F)(F)F)nc23)[C@@H](C)C1` [Example 43], the negative logarithm of the IC50 (pIC50) in the experiment with MIA PaCa-2 (Homo sapiens, MIA PaCa-2, 72 h) is 6.12; with NCI-H358 (Homo sapiens, NCI-H358, 72 h) it was 6.59. Regarding `C=CC(=O)N1C[C@H](C)N(c2nc(OC[C@@H]3CCCN3C)nc3c(=O)n(-c4cccc5cccc(Cl)c45)c(C)nc23)[C@@H](C)C1` [Compound 28, 8-((2S,6S)-4-acryloyl-2,6-dimethylpiperazin-1-yl)-3-(8-chloronaphthalen-1-yl)-2-methyl-6-(((S)-1-methylpyrrolidin-2-yl)methoxy)pyrimido[5,4-d]pyrimidin-4(3H)-one], the negative logarithm of the IC50 (pIC50) with MIA PaCa-2 (setting [3]) was 5.82; against KRAS G12C it was 6.72. On to “2-((S)-1-acryloyl-4-(7-(8-chloronaphthalen-1-yl)-2-(((2S,4R)-4-fluoro-1-methylpyrrolidin-2-yl) [Compound 25-b]”, for which the negative logarithm of the IC50 (pIC50) with MIA PaCa-2 (setting [1]) is 5.95; on KRAS G12C, 7.43. As to `C=CC(=O)N1CCN(c2nc(OC[C@@H]3CCCN3C)nc3c(=O)n(-c4cccc5cccc(Cl)c45)c(C)nc23)[C@@H](C)C1` (single isomer, unassigned) [Compound 26-a], the pIC50 in the experiment with MIA PaCa-2 (setting [3]) is 5.36. `C=CC(=O)N1CCN(c2nc(OC[C@@H]3C[C@@H](F)CN3C)nc3c(=O)n(-c4cccc5cccc(Cl)c45)c(C(F)(F)F)nc23)[C@@H](C)C1` (single isomer, unassigned) [Example 36-a] had a pIC50 against KRAS G12C of 6.81.

As for `C=CC(=O)N1CCN(c2nc(OC[C@@H]3CCCN3C)nc3c(=O)n(-c4cccc5cccc(Cl)c45)c(CC)nc23)[C@@H](C)C1` (single isomer, unassigned) [Compound 27-b], the negative-log IC50 (pIC50) was 5.57 with MIA PaCa-2 (setting [1]) and 6.05 against KRAS G12C.

For the origin of these results see patent US20230212170A1, “INHIBITORS OF KRAS G12C PROTEIN AND USES THEREOF” (SHANGHAI ANTENGENE CORPORATION LIMITED, priority 2020, published 2023).
